Source: paper PMC12136037, “Type II kinase inhibitors that target Parkinson’s disease–associated LRRK2” (Science Advances, 2025)
Several values for one entry are separate records, joined by “and”; a condition that tells them apart may be missing. Equal entries are not always repeated.

Experiments:
LRRK2^RCKW = target: T1, LRRK2^RCKW (Homo sapiens, UniProt Q5S007); assay: Biochemical LRRK2 activity assay (PhosphoSense, AssayQuant SOX peptide AQT0615); conditions: for IC50: LRRK2^RCKW kinase activity, in vitro; for normalized response (LRRK2 activity): normalized to 0% (no kinase) and 100% (no inhibitor) control, two singlicate columns per compound
T1 construct: LRRK2 R1327 to E2527; His6-Z-tag (TEV cleavable) (N, cleaved yes); host or cells: Sf9 insect cells (baculovirus)
T1 sequence (Q5S007 1327-2527): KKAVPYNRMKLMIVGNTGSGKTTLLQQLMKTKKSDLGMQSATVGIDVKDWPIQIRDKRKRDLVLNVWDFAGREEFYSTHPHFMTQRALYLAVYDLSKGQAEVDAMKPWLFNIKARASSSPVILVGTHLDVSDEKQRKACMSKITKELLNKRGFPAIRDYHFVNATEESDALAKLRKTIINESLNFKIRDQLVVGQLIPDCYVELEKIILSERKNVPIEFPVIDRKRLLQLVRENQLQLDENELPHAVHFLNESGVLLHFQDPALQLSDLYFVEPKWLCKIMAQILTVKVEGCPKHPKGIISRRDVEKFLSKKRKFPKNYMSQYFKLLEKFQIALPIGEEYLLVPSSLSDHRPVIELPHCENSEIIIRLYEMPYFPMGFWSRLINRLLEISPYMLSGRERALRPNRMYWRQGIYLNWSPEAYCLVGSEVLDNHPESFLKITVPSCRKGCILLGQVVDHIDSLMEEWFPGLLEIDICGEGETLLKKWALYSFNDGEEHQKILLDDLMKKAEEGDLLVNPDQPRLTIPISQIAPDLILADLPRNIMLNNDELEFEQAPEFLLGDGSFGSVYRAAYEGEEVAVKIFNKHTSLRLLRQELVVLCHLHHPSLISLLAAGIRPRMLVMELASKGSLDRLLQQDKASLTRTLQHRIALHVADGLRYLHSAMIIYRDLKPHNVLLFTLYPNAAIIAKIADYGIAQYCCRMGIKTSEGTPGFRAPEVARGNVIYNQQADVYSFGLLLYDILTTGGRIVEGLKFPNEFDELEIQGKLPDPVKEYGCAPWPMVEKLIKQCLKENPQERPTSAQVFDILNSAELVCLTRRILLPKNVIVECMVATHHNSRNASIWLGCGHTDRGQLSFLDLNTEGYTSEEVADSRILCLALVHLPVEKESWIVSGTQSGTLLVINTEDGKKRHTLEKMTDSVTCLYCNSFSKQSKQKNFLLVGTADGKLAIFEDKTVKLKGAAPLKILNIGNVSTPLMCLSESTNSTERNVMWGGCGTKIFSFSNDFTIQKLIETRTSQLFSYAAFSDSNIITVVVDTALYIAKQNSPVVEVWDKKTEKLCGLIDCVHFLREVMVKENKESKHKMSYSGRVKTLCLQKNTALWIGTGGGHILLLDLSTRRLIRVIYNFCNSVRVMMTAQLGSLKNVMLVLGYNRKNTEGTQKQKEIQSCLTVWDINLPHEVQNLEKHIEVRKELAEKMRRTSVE
Method: Two wells per compound were used as 0% (without protein and compound) and 100% (without compound) control. […] The 0% control wells were filled with 10 μl of pure reaction buffer. With the ECHO, 5 nl of 100 mM ATP was pipetted into each well, the plates were centrifuged at 1500g for 2 min, and the reaction was incubated at room temperature for 4 hours. The fluorescence of the SOX-peptide after 360-nm excitation was measured at 487-nm emission with a PHERAstar plate reader (BMG Labtech). The IC50 values were calculated from a nonlinear regression of the log[inhibitor] versus the normalized response with GraphPad Prism 8 (www.graphpad.com/, RRID:SCR_002798).

LRRK2^KW = target: T2, LRRK2^KW (Homo sapiens, UniProt Q5S007); assay: DSF thermal stabilization of LRRK2^KW; assay type: binding; conditions: DSF, LRRK2^KW, 10 μM inhibitor
T2 construct: LRRK2 R1847 to E2527; His6-Z-tag (TEV cleavable) (N, cleaved yes); host or cells: Sf9 insect cells (baculovirus)
T2 sequence (Q5S007 1847-2527): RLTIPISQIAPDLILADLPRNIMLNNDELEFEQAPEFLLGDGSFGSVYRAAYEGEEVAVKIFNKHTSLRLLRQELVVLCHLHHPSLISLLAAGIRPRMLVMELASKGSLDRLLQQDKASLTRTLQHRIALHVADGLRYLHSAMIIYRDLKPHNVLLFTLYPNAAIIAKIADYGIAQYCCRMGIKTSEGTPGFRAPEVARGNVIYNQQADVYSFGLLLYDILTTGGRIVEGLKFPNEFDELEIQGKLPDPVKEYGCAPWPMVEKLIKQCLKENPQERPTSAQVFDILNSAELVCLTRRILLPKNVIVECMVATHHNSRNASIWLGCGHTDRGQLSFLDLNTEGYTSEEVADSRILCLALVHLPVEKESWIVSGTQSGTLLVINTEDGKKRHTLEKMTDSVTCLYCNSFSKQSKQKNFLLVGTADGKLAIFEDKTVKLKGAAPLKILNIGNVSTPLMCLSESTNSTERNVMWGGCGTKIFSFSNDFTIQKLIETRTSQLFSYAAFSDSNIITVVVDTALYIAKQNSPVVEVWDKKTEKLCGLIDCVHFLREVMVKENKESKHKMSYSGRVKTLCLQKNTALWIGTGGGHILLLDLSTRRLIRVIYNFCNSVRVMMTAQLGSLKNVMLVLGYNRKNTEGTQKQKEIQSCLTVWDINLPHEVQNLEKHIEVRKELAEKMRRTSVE
Method: To characterize binding between small molecules and LRRK2^KW, induced thermal stabilization was measured by DSF according to previously established protocols ([47]). In brief, LRRK2^KW was diluted to 4 μM in 20 mM Hepes (pH 7.4), 150 mM NaCl, 0.5 mM TCEP, 0.5% glycerol, 20 μM GDP, and 2.5 mM MgCl2, and SYPRO Orange was added (1:1000, MilliporeSigma). Inhibitor (10 μM) to be tested was added to a final sample volume of 20 μl per well of a 96-well plate (white, Starlab). […] The fluorescence was plotted against the temperature, and the melting point (Tm) was determined as the minimum of the first derivative relative to the control.

| SMILES | IC50 (LRRK2^RCKW) [µM] | normalized response (LRRK2 activity) (LRRK2^RCKW; log[inhibitor(mol)] -4.82391) | normalized response (LRRK2 activity) (LRRK2^RCKW; log[inhibitor(mol)] -5.12494) | normalized response (LRRK2 activity) (LRRK2^RCKW; log[inhibitor(mol)] -5.60206) | normalized response (LRRK2 activity) (LRRK2^RCKW; log[inhibitor(mol)] -6.30103) | normalized response (LRRK2 activity) (LRRK2^RCKW; log[inhibitor(mol)] -6.90309) | normalized response (LRRK2 activity) (LRRK2^RCKW; log[inhibitor(mol)] -7.30103) | normalized response (LRRK2 activity) (LRRK2^RCKW; log[inhibitor(mol)] -7.60206) | normalized response (LRRK2 activity) (LRRK2^RCKW; log[inhibitor(mol)] -8.09691) | normalized response (LRRK2 activity) (LRRK2^RCKW; log[inhibitor(mol)] -8.61979) | normalized response (LRRK2 activity) (LRRK2^RCKW; log[inhibitor(mol)] -9.09691) | normalized response (LRRK2 activity) (LRRK2^RCKW; log[inhibitor(mol)] -9.39794) | ∆Tm (K) (LRRK2^KW) |
| --- | --- | --- | --- | --- | --- | --- | --- | --- | --- | --- | --- | --- | --- |
| O=C(Nc1ccc(F)cc1)C1(C(=O)Nc2cccc(-c3c[nH]c4ncnc(N5CCOCC5)c34)c2)CCCC1 [Compound 3] | 0.694 ± 0.001 | -13.5275% and -8.323% | -11.1035% and -8.9537% | 14.4144% and 11.8039% | 58.5784% and 59.582% | 93.4358% and 94.7027% | 100.456% and 104.273% | 103.702% and 110.256% | 103.006% and 100.445% | 97.1047% and 100.867% | 96.2602% and 102.309% | 100.406% and 102.43% | 6.0 |
| Cc1ccc(NC(=O)C2(C(=O)Nc3ccc(F)cc3)CC2)cc1-c1c[nH]c2ncnc(N3CCOCC3)c12 [Compound 5] | 9.58 ± 0.565 | – | 55.8562% and 55.0924% | 86.5066% and 85.5833% | – | 96.7944% and 101.803% | 96.688% and 103.084% | 102.717% and 103.476% | 97.9836% and 98.7571% | 100.995% and 103.804% | 100.705% and 102.156% | 104.655% and 105.003% | 1.8 |
| Cc1ccc(-c2c[nH]c3ncnc(N4CCOCC4)c23)cc1NC(=O)C1(C(=O)Nc2ccc(F)cc2)CC1 [Compound 7] | 10.5 | 48.7254% and 32.1819% | 55.2664% and 57.3114% | 81.8607% and 85.9555% | 94.4496% and 98.762% | 100.265% and 101.228% | 105.467% and 108.576% | 105.158% and 64.9692% | 97.331% and 101.237% | 106.173% and 99.8401% | 141.905% and 102.383% | 109.403% and 105.477% | 7.8 |
| O=C(c1cccc(NC(=O)C2(C(=O)Nc3ccc(F)cc3)CC2)c1)c1c[nH]c2ncnc(N3CCOCC3)c12 [Compound 8] | 0.912 ± 0.141 | 4.225% and -5.581% | 6.8846% and 7.148% | 31.5798% and 32.6109% | 61.7209% and 66.4318% | 86.2516% and 93.0519% | 93.3097% and 89.5476% | 86.8493% and 91.0776% | 91.1928% and 88.5988% | 102.068% and 96.0518% | 105.369% and 96.9676% | 104.196% and 102.019% | 7.0 |
| Cn1cc(NC(=O)C2(C(=O)Nc3cccc(-c4c[nH]c5ncnc(N6CCOCC6)c45)c3)CC2)cn1 [Compound 9] | 2.11 ± 1.19 | – | – | 49.186% and 49.8222% | 82.8654% and 52.2345% | 104.293% and 98.1919% | 105.91% and 76.5961% | 104.315% and 59.7541% | 97.675% and 89.444% | 99.5438% and 104.868% | 109.546% and 62.2548% | 105.46% and 118.944% | 4.0 |
